Reference: ChEMBL document CHEMBL5325400 (Eur J Med Chem, 2023)
The source made the active and inactive calls. The rule behind the calls is not given here.

Tests used:
SK-OV-3 = experiment: Antiproliferative activity against human SK-OV-3 cells assessed as inhibition of cell growth measured after 48 hrs by MTT assay; assay type: functional, cell-based; conditions: SK-OV-3, 48 h
HepG2 = experiment: Antiproliferative activity against human HepG2 cells assessed as inhibition of cell growth measured after 48 hrs by MTT assay; assay type: functional, cell-based; conditions: HepG2, 48 h
MDA-MB-231 = experiment: Antiproliferative activity against human MDA-MB-231 cells assessed as inhibition of cell growth measured after 48 hrs by MTT assay; assay type: functional, cell-based; conditions: MDA-MB-231, 48 h
HeLa = experiment: Antiproliferative activity against human HeLa cells assessed as inhibition of cell growth measured after 48 hrs by MTT assay; assay type: functional, cell-based
B16-F10 = experiment: Antiproliferative activity against mouse B16-F10 cells assessed as inhibition of cell growth measured after 48 hrs by MTT assay; assay type: functional, cell-based; conditions: B16-F10, 48 h
A549 [1] = experiment: Antiproliferative activity against human A549 cells assessed as inhibition of cell growth measured after 48 hrs by MTT assay; assay type: functional, cell-based; conditions: A549, 48 h
A549 [2] = experiment: Antiproliferative activity against human A549 cells expressing lentivirus RNAi VTI-96658 assessed as inhibition of cell growth measured after 48 hrs by MTT assay; assay type: functional, cell-based
A549 [3] = experiment: Antiproliferative activity against human A549 cells expressing lentivirus RNAi VTI-96659 assessed as inhibition of cell growth measured after 48 hrs by MTT assay; assay type: functional, cell-based
A549 [4] = experiment: Antiproliferative activity against human A549 cells expressing lentivirus RNAi VTI-96660 assessed as inhibition of cell growth measured after 48 hrs by MTT assay; assay type: functional, cell-based
Tubulin (Sus scrofa) = Tubulin (Sus scrofa) (UniProt P02554+P02550); experiment: Inhibition of porcine brain tubulin polymerization at 10 uM measured at 1 min interval for 60 mins by fluorescence based analysis
Sequence of Tubulin (Sus scrofa) (P02550 whole entry, looked up): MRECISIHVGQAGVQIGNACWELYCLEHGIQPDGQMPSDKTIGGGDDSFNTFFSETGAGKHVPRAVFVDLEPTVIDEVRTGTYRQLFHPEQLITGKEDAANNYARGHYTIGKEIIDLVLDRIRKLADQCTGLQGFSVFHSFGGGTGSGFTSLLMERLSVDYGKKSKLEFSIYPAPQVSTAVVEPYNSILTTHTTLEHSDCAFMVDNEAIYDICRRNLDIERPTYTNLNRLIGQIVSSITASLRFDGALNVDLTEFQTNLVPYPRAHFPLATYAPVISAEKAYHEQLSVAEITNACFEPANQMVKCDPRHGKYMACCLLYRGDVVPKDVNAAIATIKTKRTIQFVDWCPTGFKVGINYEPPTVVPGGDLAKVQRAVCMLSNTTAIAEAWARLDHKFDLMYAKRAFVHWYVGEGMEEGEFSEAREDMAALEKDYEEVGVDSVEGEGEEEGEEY
Sequence of Tubulin (Sus scrofa) (P02554 whole entry, looked up): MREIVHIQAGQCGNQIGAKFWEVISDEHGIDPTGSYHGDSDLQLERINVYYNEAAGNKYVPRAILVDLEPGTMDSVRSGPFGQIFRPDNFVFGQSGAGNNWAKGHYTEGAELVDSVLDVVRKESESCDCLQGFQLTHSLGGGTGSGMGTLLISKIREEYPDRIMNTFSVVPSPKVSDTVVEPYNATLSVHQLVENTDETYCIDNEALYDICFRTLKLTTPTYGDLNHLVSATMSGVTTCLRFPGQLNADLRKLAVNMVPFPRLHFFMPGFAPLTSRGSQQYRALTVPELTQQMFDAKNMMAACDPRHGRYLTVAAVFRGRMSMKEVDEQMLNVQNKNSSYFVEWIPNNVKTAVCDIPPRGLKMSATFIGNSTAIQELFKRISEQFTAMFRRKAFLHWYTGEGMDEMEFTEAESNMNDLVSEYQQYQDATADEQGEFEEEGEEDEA

A2780/Taxol = experiment: Antiproliferative activity against paclitaxel resistant human A2780/Taxol cells assessed as inhibition of cell growth incubated for 48 hrs by MTT assay; assay type: functional, cell-based
A2780 = experiment: cells; conditions: Homo sapiens, A2780, 48 h
Description: Antiproliferative activity against human A2780 cells assessed as inhibition of cell growth incubated for 48 hrs by MTT assay

A549 [5] = experiment: Antitumor activity against human A549 cells xenografted in BALB/c mouse assessed as tumor growth inhibition at 10 mg/kg, ip administered every other day for 25 days; assay type: functional; conditions: A549, 600 h, time 25 day, read-out: TGI
A549 [6] = experiment: Antitumor activity against human A549 cells xenografted in BALB/c mouse assessed as tumor volume at 10 mg/kg, ip administered every other day for 25 days; assay type: functional; conditions: time 25 day
A549 [7] = experiment: Antitumor activity against human A549 cells xenografted in BALB/c mouse assessed as tumor weight at 10 mg/kg, ip administered every other day for 25 days; assay type: functional, organism-based; conditions: time 25.0 day
[8] = Toxicity in BALB/c mouse xenografted with human A549 cells assessed as change in body weight at 10 mg/kg, ip administered every other day for 25 days; assay type: organism-based; conditions: in vivo, 600 h, time 25 day

Row | IC50 (SK-OV-3) [nM] | IC50 (HepG2) [nM] | IC50 (MDA-MB-231) [nM] | IC50 (B16-F10) [nM] | IC50 (A549 [1]) [nM] | inhibition (Tubulin (Sus scrofa)) | Compound | IC50 (HeLa) [nM] | Activity (A549 [2]) | Activity (A549 [3]) | Activity (A549 [4]) | IC50 (A2780/Taxol) [nM] | IC50 (A2780) [nM] | inhibition in vivo at 10 mg/kg (A549 [5]) [%] | Activity (A549 [6]) [%] | Activity (A549 [7]) | Activity [8]
1 | 63.2 | 28.5 | 45.3 | 60.7 | 84.1 | Active | O=C(Nc1cccc(Nc2cc(Nc3cccc(C(F)(F)F)c3)ncn2)c1)C1CC1 | 83.4 | Active | Active | Active | – | – | – | – | – | –
2 | 34.5 | 2.5 | 1.1 | > 1000 | 3.8 | inactive | CC(=O)O[C@H]1C(=O)[C@@]2(C)[C@H]([C@H](OC(=O)c3ccccc3)[C@]3(O)C[C@H](OC(=O)[C@H](O)[C@@H](NC(=O)c4ccccc4)c4ccccc4)C(C)=C1C3(C)C)[C@]1(OC(C)=O)CO[C@@H]1C[C@@H]2O [PACLITAXEL] | – | – | – | – | 17900 | – | 48.6 | 46.53 | Active | Non-Toxic

Row | Compound | IC50 (SK-OV-3) [nM] | IC50 (HepG2) [nM] | IC50 (MDA-MB-231) [nM] | IC50 (B16-F10) [nM] | IC50 (A549 [1]) [nM] | inhibition (Tubulin (Sus scrofa)) | IC50 (HeLa) [nM] | Activity (A549 [2]) | Activity (A549 [3]) | Activity (A549 [4]) | IC50 (A2780/Taxol) [nM] | IC50 (A2780) [nM] | inhibition in vivo at 10 mg/kg (A549 [5]) [%] | Activity (A549 [6]) [%] | Activity (A549 [7]) | Activity [8]
3 | COc1cc2c(c(OC)c1OC)-c1ccc(OC)c(=O)cc1[C@@H](NC(C)=O)CC2 [COLCHICINE] | 7.2 | 83.7 | 67.4 | 29.2 | – | – | 33.5 | – | – | – | 253 | 20 | – | – | – | –
